Tests used:
[1] = test system: TNFα, IL6, and chemokine (MCP-1); experiment: Plasma proinflammatory molecules in CIA mice, BD Cytometric Bead Array; format: in vivo, mouse
From the text: Plasma was collected on day 33 from mice treated as described in Example 3 and analyzed for proinflammatory molecules, e.g. TNFα, IL6, and chemokine (MCP-1) using the BD™ Cytometric Bead Array (CBA) Flex Sets.

[2] = test system: naïve CD4^+CD62L^+ T cells (responder) with nTreg cells; experiment: In vitro nTreg suppression assay; format: cell-based, mouse; design: CD4+ T cell activation and proliferation: dose or concentration left out as unconfirmed
From the text: Spleens and lymph nodes were harvested from 10 FoxP3-GFP mice on a B6 background. […] Naïve CD4^+ T cells were purified from the rest of the cells as described above. A total of 6.2×10^8 naïve CD4^+ T cells were collected. 5×10^7 cells were set aside to be effector T cells in the experiment. The remainder of the cells (5.7×10^8) were stained with anti-CD4 PE-Cy7, and the PE-Cy7^+/GFP^+ cells were sorted via MoFlo. A total of 4×10^6 nTreg (CD4^+/FoxP3^+) cells were collected from the MoFlo at 99% purity. […] The culture wells also received various ratios of nTreg cells: B7-H4-Ig. nTreg cells (CD4^+/CD62L^+/FoxP3-GFP^+) were isolated from B6/FoxP3-GFP mice by MoFLo sorting. Naïve GFP^− T cells CD4^+/CD62L^+/FoxP3-GFP^−) were used as responder cells. Increasing numbers of the nTreg cells were added to constant numbers of naïve CD4^+CD62L^+ T cells, irradiated splenocytic APCs, and anti-CD3 (FIG. 31). […]

[3] = test system: CD4^+CD62L^+ naïve T cells; experiment: Mouse Th17 assay, IL-17A ELISA; format: cell-based; conditions: 20, 10, 5, 2.5, and 1.25 μg/mL (FIGS. 57, 58)
Procedure: CD4^+CD62L^+ naïve T cells were isolated from BALB/c mice as in the above examples, and activated by anti-CD3 and anti-CD28 bound beads in the presence of Th17 differntiation cocktail (TGF-β1 (10 ng/mL), IL-6 (50 ng/mL), IL-23 (4 ng/mL), anti-IL-4 (10 μg/mL), anti-IFN-γ (5 μg/mL) and anti-IL-2 (5 μg/mL)). Murine B7-H4-Ig (10 μg/mL) or retinoic acid (RA) (10 μM) was added to the cultures on day 0, day 1, or day 2 of the 4 day culture. IL-17A levels were measured by ELISA at the end of the 4 day culture.
The Th17 assay is 4 days in duration. In order to determine when B7-H4-Ig is acting, the Th17 assay was performed with the addition of 10 μg/mL of murine B7-H4-Ig, 10 μg/mL of mouse IgG control, or […] retinoic acid on Day 0, Day 1, or Day 2.
Peripheral T cells were obtained from spleens and inguinal lymph nodes of 6-9 week old BALB/c mice by mechanical disruption through a cell strainer followed by red blood cell (RBC) lysis.
Naïve helper T cells (CD4^+CD62L^+) were obtained using the Miltenyi Biotec microbead system. CD4^+ cells are enriched by negative selection, and followed by a positive selection of CD62L^+. In some experiments CD25+ cells were also depleted.
After selection, cells are activated in vitro with anti-CD3/CD28 beads at a 1:1 cell:bead ratio in the presence of the TH17 differentiation cocktail (TGF-β1 (10 ng/ml), IL-6 (50 ng/ml), IL-23 (4 ng/ml), anti-IL-2 (5 μg/ml), anti-IL-4 (10 μg/ml), and anti-IFN-γ (5 μg/ml)). Murine B7-H4-Ig is added at a final concentration of 1.25-20 μg/ml. Retinoic acid (RA) is used as positive control and mouse IgG is used as a negative control.
After 4 days of culture, cultures are spun down and supernatants are harvested and stored at <−65° C. until analyzed for IL-17A levels by ELISA.

Substance: B7-H4-Ig: B7-H4 extracellular domain fused to Ig Fc; bare label is the human protein in Example 3, murine protein in Examples 1, 2, 5, 7-11
- plasma TNFα production ([1]; plasma day 33, vs vehicle control (FIG. 17A)): significantly reduced
- plasma IL6 production ([1]; plasma day 33, vs vehicle control (FIG. 17B)): significantly reduced
- plasma MCP-1 production ([1]; plasma day 33, vs vehicle control (FIG. 17C)): significantly reduced
- anti-CD3 induced T cell activation ([2]; 1:0.12 and 1:0.25 ratios of T cell responder:nTreg, 5 or 10 μg/mL (FIG. 32)): completely blocked anti-CD3 induced T cell activation
- CD4+ T cell activation and proliferation ([2]; absence of nTreg cells (ratio 1:0), 0, 1, 5, or 10, anti-CD3 (FIG. 32)): suppressed CD4^+ T cell activation and proliferation in a dose dependent manner

Substance: Human B7-H4-Ig: human B7-H4 extracellular domain fused to hinge, CH2 and CH3 regions of human immunoglobulin Cγ1 chain; representative SEQ ID NOs:114-137
- activity on mouse cells in the Th17 assay (IL-17A) [3]: active

Source: patent US9011853B2, “B7-H4 fusion proteins and methods of use thereof” (Amplimmune, Inc., priority 2009, dated 2015)
